In US9144239B2, “Macrocyclic picolinamides as fungicides” (DOW AGROSCIENCES LLC, priority 2012, dated 2015):

Assays:
Assay type in all cases: in vivo
[1] = test system: Glomerella lagenarium; anamorph: Colletotrichum lagenarium; assay: Fungicidal activity: cucumber anthracnose (COLLLA); settings: Colletotrichum orbiculare, 24 h, 1 Day Protectant, read-out: Disease Control COLLLA 1DP
Method: Technical grades of materials were dissolved in acetone, which were then mixed with nine volumes of water containing 110 ppm Triton X-100. The fungicide solutions were applied onto wheat seedlings using an automated booth sprayer to run-off. All sprayed plants were allowed to air dry prior to further handling. Wheat plants (variety Yuma) were grown from seed in a greenhouse in 50% mineral soil/50% soil-less Metro mix until the first leaf was fully emerged, with 7-10 seedlings per pot. These plants were inoculated with an aqueous spore suspension of Septoria tritici either prior to or after fungicide treatments. After inoculation the plants were kept in 100% relative humidity (one day in a dark dew chamber followed by two to three days in a lighted dew chamber at 20° C.) to permit spores to germinate and infect the leaf. The plants were then transferred to a greenhouse set at 20° C. for disease to develop. When disease symptoms were fully expressed on the 1st leaves of untreated plants, infection levels were assessed on a scale of 0 to 100 percent disease severity. Percent disease control was calculated using the ratio of disease severity on treated plants relative to untreated plants. Evaluation of Fungicidal Activity: Cucumber Anthracnose (Glomerella lagenarium; Anamorph: Colletotrichum lagenarium; Bayer Code COLLLA) Cucumber seedlings (variety Bush Pickle) were propagated in soil-less Metro mix, with each pot having one plant, and used in the test when 12 to 14 days old. Test plants were inoculated with an aqueous spore suspension of Colletotrichum lagenarium 24 hr after fungicide treatments. After inoculation the plants were kept in a dew room at 22° C. with 100% relative humidity for 48 hr to permit spores to germinate and infect the leaf. The plants were then transferred to a growth room set at 22° C. for disease to develop. Fungicide formulation, application and disease assessment on the sprayed leaves followed the procedures as described in the Example A.

Cercospora beticola = assay: Fungicidal activity: leaf spot of sugar beets (CERCBE); settings: 24 h, 1 Day Protectant, sugar beet, read-out: Disease Control CERCBE 1DP
Method: Technical grades of materials were dissolved in acetone, which were then mixed with nine volumes of water containing 110 ppm Triton X-100. The fungicide solutions were applied onto wheat seedlings using an automated booth sprayer to run-off. All sprayed plants were allowed to air dry prior to further handling. Wheat plants (variety Yuma) were grown from seed in a greenhouse in 50% mineral soil/50% soil-less Metro mix until the first leaf was fully emerged, with 7-10 seedlings per pot. These plants were inoculated with an aqueous spore suspension of Septoria tritici either prior to or after fungicide treatments. After inoculation the plants were kept in 100% relative humidity (one day in a dark dew chamber followed by two to three days in a lighted dew chamber at 20° C.) to permit spores to germinate and infect the leaf. The plants were then transferred to a greenhouse set at 20° C. for disease to develop. When disease symptoms were fully expressed on the 1st leaves of untreated plants, infection levels were assessed on a scale of 0 to 100 percent disease severity. Percent disease control was calculated using the ratio of disease severity on treated plants relative to untreated plants. Evaluation of Fungicidal Activity: Leaf Spot of Sugar Beets (Cercospora beticola; Bayer Code CERCBE) Sugar beet plants (variety HH88) were grown in soil-less Metro mix and trimmed regularly to maintain a uniform plant size prior to test. Plants were inoculated with a spore suspension 24 hr after fungicide treatments. Inoculated plants were kept in a dew chamber at 22° C. for 48 hr then incubated in a greenhouse set at 24° C. under a clear plastic hood with bottom ventilation until disease symptoms were fully expressed. Fungicide formulation, application and disease assessment on the sprayed leaves followed the procedures as described in the Example A.

Alternaria solani = assay: Fungicidal activity: tomato early blight (ALTESO); settings: 24 h, 1 Day Protectant, read-out: Disease Control ALTESO 1DP
Method: Technical grades of materials were dissolved in acetone, which were then mixed with nine volumes of water containing 110 ppm Triton X-100. The fungicide solutions were applied onto wheat seedlings using an automated booth sprayer to run-off. All sprayed plants were allowed to air dry prior to further handling. Wheat plants (variety Yuma) were grown from seed in a greenhouse in 50% mineral soil/50% soil-less Metro mix until the first leaf was fully emerged, with 7-10 seedlings per pot. These plants were inoculated with an aqueous spore suspension of Septoria tritici either prior to or after fungicide treatments. After inoculation the plants were kept in 100% relative humidity (one day in a dark dew chamber followed by two to three days in a lighted dew chamber at 20° C.) to permit spores to germinate and infect the leaf. The plants were then transferred to a greenhouse set at 20° C. for disease to develop. When disease symptoms were fully expressed on the 1st leaves of untreated plants, infection levels were assessed on a scale of 0 to 100 percent disease severity. Percent disease control was calculated using the ratio of disease severity on treated plants relative to untreated plants. Evaluation of Fungicidal Activity: Tomato Early Blight (Alternaria solani; Bayer Code […]) Tomato plants (variety Outdoor girl) were propagated in soil-less Metro mix, with each pot having one plant, and used when 12 to 14 days old. Test plants were inoculated with an aqueous spore suspension of Alternaria solani 24 hr after fungicide treatments. After inoculation the plants were kept in 100% relative humidity (one day in a dark dew chamber followed by two to three days in a lighted dew chamber at 20° C.) to permit spores to germinate and infect the leaf. The plants were then transferred to a growth room at 22° C. for disease to develop. Fungicide formulation, application and disease assessment on the sprayed leaves followed the procedures as described in the Example A.

[2] = test system: Blumeria graminis f.sp. tritici; synonym: Erysiphe graminis f.sp. tritici; assay: Fungicidal activity: wheat powdery mildew (ERYSGT); settings: 24 h, 1 Day Protectant, read-out: Disease Control ERYSGT 1 DP
Method: Technical grades of materials were dissolved in acetone, which were then mixed with nine volumes of water containing 110 ppm Triton X-100. The fungicide solutions were applied onto wheat seedlings using an automated booth sprayer to run-off. All sprayed plants were allowed to air dry prior to further handling. Wheat plants (variety Yuma) were grown from seed in a greenhouse in 50% mineral soil/50% soil-less Metro mix until the first leaf was fully emerged, with 7-10 seedlings per pot. These plants were inoculated with an aqueous spore suspension of Septoria tritici either prior to or after fungicide treatments. After inoculation the plants were kept in 100% relative humidity (one day in a dark dew chamber followed by two to three days in a lighted dew chamber at 20° C.) to permit spores to germinate and infect the leaf. The plants were then transferred to a greenhouse set at 20° C. for disease to develop. When disease symptoms were fully expressed on the 1st leaves of untreated plants, infection levels were assessed on a scale of 0 to 100 percent disease severity. Percent disease control was calculated using the ratio of disease severity on treated plants relative to untreated plants. Evaluation of Fungicidal Activity: Wheat Powdery Mildew (Blumeria graminis f.sp. tritici; Synonym: Erysiphe graminis f.sp. tritici; Bayer Code […]) Wheat plants (variety Yuma) were grown from seed in a greenhouse in 50% mineral soil/50% soil-less Metro mix until the first leaf was fully emerged, with 7-10 seedlings per pot. These plants were inoculated by dusting with infected stock plants 24 hr after fungicide treatments. After inoculation the plants were kept in a greenhouse set at 20° C. for disease to develop. Fungicide formulation, application and disease assessment on the sprayed leaves followed the procedures as described in the Example A.

## COc1ccnc(C(=O)N[C@H]2COC[C@H](Oc3ccc(F)cc3)[C@@H](Oc3ccc(F)cc3)[C@H](C)OC2=O)c1OC(C)=O [Compound 229, 2-(((3S,7S,8S,9S)-7,8-bis(4-fluorophenoxy)-9-methyl-2-oxo-1,5-dioxonan-3-yl)carbamoyl)-4-methoxypyridin-3-yl acetate]
[1]
  pest or weed control at 100 ppm: 80 to 100%
Cercospora beticola
  pest or weed control at 100 ppm: 80 to 100%
Alternaria solani
  pest or weed control at 100 ppm: 0 to 80%

## CCCCO[C@H]1COC[C@H](NC(=O)c2nccc(OC)c2OCOC(C)=O)C(=O)O[C@@H](C)[C@@H]1OCC(F)F [Compound 55]
[2]
  pest or weed control at 100 ppm: 0 to 80%
[1]
  pest or weed control at 100 ppm: 80 to 100%
Cercospora beticola
  pest or weed control at 100 ppm: 80 to 100%

## COc1ccnc(C(=O)N[C@H]2COC[C@H](OCCCc3ccccc3)[C@@H](OCCCc3ccccc3)[C@H](C)OC2=O)c1OCOC(C)=O [Compound 60]
[2]
  pest or weed control at 100 ppm: 0 to 80%
[1]
  pest or weed control at 100 ppm: 80 to 100%
Cercospora beticola
  pest or weed control at 100 ppm: 80 to 100%
Alternaria solani
  pest or weed control at 100 ppm: 0 to 80%

## COc1ccnc(C(=O)N[C@H]2COC[C@H](OCC(C)C)[C@@H](Oc3ccccc3)[C@H](C)OC2=O)c1OCOC(C)=O [Compound 85]
[2]
  pest or weed control at 100 ppm: 0 to 80%
[1]
  pest or weed control at 100 ppm: 80 to 100%
Cercospora beticola
  pest or weed control at 100 ppm: 80 to 100%
Alternaria solani
  pest or weed control at 100 ppm: 0 to 80%

## COc1ccnc(C(=O)N[C@H]2COC[C@H](Oc3ccccc3)[C@@H](OCC(C)C)[C@H](C)OC2=O)c1OCOC(C)=O [Compound 86]
[2]
  pest or weed control at 100 ppm: 80 to 100%
[1]
  pest or weed control at 100 ppm: 80 to 100%
Cercospora beticola
  pest or weed control at 100 ppm: 80 to 100%
Alternaria solani
  pest or weed control at 100 ppm: 80 to 100%

## COc1ccnc(C(=O)N[C@H]2COC[C@H](OC)[C@@H](OC)[C@H](C)OC2=O)c1OCOC(C)=O [Compound 65]
[1]
  pest or weed control at 100 ppm: 0 to 80%
Cercospora beticola
  pest or weed control at 100 ppm: 0 to 80%

## CCC(C)(C)O[C@H]1COC[C@H](NC(=O)c2nccc(OC)c2OCOC(C)=O)C(=O)O[C@@H](C)[C@@H]1OCC(C)C [Compound 78]
[2]
  pest or weed control at 100 ppm: 80 to 100%
[1]
  pest or weed control at 100 ppm: 80 to 100%
Cercospora beticola
  pest or weed control at 100 ppm: 0 to 80%
Alternaria solani
  pest or weed control at 100 ppm: 0 to 80%

## CCCO[C@H]1[C@H](C)OC(=O)[C@@H](NC(=O)c2nccc(OC)c2OCOC(C)=O)COC[C@@H]1Oc1ccccc1 [Compound 222]
[1]
  pest or weed control at 100 ppm: 80 to 100%
Cercospora beticola
  pest or weed control at 100 ppm: 80 to 100%
Alternaria solani
  pest or weed control at 100 ppm: 0 to 80%

## COc1ccnc(C(=O)N[C@H]2COC[C@H](OC(=O)C(C)C)[C@@H](OC(=O)C(C)C)[C@H](C)OC2=O)c1OCOC(C)=O [Compound 57]
[2]
  pest or weed control at 100 ppm: 0 to 80%
[1]
  pest or weed control at 100 ppm: 80 to 100%
Cercospora beticola
  pest or weed control at 100 ppm: 80 to 100%
Alternaria solani
  pest or weed control at 100 ppm: 0 to 80%

## COc1ccnc(C(=O)N[C@H]2COC[C@H](OCC(C)C)[C@@H](OC3CCCCC3)[C@H](C)OC2=O)c1OCOC(C)=O [Compound 77]
[2]
  pest or weed control at 100 ppm: 0 to 80%
[1]
  pest or weed control at 100 ppm: 80 to 100%
Cercospora beticola
  pest or weed control at 100 ppm: 80 to 100%
Alternaria solani
  pest or weed control at 100 ppm: 0 to 80%

## COc1ccnc(C(=O)N[C@H]2COC[C@H](Oc3ccc(F)cc3)[C@@H](Oc3ccc(F)cc3)[C@H](C)OC2=O)c1OCOC(C)=O [Compound 231]
[1]
  pest or weed control at 100 ppm: 80 to 100%
Cercospora beticola
  pest or weed control at 100 ppm: 0 to 80%
Alternaria solani
  pest or weed control at 100 ppm: 0 to 80%

## COc1ccnc(C(=O)N[C@H]2COC[C@H](OCC(C)C)[C@@H](OCC(C)C)[C@H](C)OC2=O)c1OCOC(C)=O [Compound 3, (2-((3S,7S,8S,9S)-7,8-diisobutoxy-9-methyl-2-oxo-1,5-dioxonan-3-ylcarbamoyl)-4-methoxypyridin-3-yloxy)methyl]
[2]
  pest or weed control at 100 ppm: 80 to 100%
[1]
  pest or weed control at 100 ppm: 80 to 100%
Cercospora beticola
  pest or weed control at 100 ppm: 80 to 100%
Alternaria solani
  pest or weed control at 100 ppm: 0 to 80%

## COc1ccnc(C(=O)N[C@H]2COC[C@H](OCCCC(F)(F)F)[C@@H](OCCCC(F)(F)F)[C@H](C)OC2=O)c1OCOC(C)=O [Compound 68]
[2]
  pest or weed control at 100 ppm: 0 to 80%
[1]
  pest or weed control at 100 ppm: 80 to 100%
Cercospora beticola
  pest or weed control at 100 ppm: 80 to 100%
Alternaria solani
  pest or weed control at 100 ppm: 0 to 80%

## COc1ccnc(C(=O)N[C@H]2COC[C@H](Oc3ccccc3)[C@@H](Oc3ccccc3)[C@H](C)OC2=O)c1OCOC(C)=O [Compound 84]
[2]
  pest or weed control at 100 ppm: 0 to 80%
[1]
  pest or weed control at 100 ppm: 80 to 100%
Cercospora beticola
  pest or weed control at 100 ppm: 80 to 100%
Alternaria solani
  pest or weed control at 100 ppm: 0 to 80%

## COc1ccnc(C(=O)N[C@H]2COC[C@H](OCC(C)C)[C@@H](OCC(C)C)[C@H](C)OC2=O)c1OCOC(=O)C(C)C [Compound 2]
Cercospora beticola
  pest or weed control at 100 ppm: 0 to 80%

## COc1ccnc(C(=O)NC2COC[C@H](OCc3ccccc3)[C@@H](OCc3ccccc3)[C@H](C)OC2=O)c1OCOC(C)=O (stereo partly drawn) [Compound 12]
[2]
  pest or weed control at 100 ppm: 0 to 80%
[1]
  pest or weed control at 100 ppm: 80 to 100%
Cercospora beticola
  pest or weed control at 100 ppm: 80 to 100%
Alternaria solani
  pest or weed control at 100 ppm: 0 to 80%

## CCCCO[C@H]1COC[C@H](NC(=O)c2nccc(OC)c2OCOC(C)=O)C(=O)O[C@@H](C)[C@@H]1OCCOC [Compound 54]
[2]
  pest or weed control at 100 ppm: 0 to 80%
[1]
  pest or weed control at 100 ppm: 80 to 100%
Cercospora beticola
  pest or weed control at 100 ppm: 0 to 80%

## CCCO[C@H]1COC[C@H](NC(=O)c2nccc(OC)c2OCOC(C)=O)C(=O)O[C@@H](C)[C@@H]1Oc1ccccc1 [Compound 221]
[1]
  pest or weed control at 100 ppm: 80 to 100%
Cercospora beticola
  pest or weed control at 100 ppm: 80 to 100%
